# Assay results as given in PubChem BioAssay (NCI).
#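 These data come from cells grown in 96-well plates and exposed to compound for 48 hours at five concentrations. At the GI50, growth is halved. Definition used: TGI = concentration required for complete inhibition of growth.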
# Key:
# Experiment in all cases: DTP human tumour cell line panel, 48 h
# NCI-H226 lung = tested on: NCI-H226 lung
# OVCAR-8 ovarian = tested on: OVCAR-8 ovarian
# SF-295 CNS = tested on: SF-295 CNS
# EKVX NSCLC = tested on: EKVX NSCLC
# NCI/ADR-RES ovarian = tested on: NCI/ADR-RES ovarian
# SR leukemia = tested on: SR leukemia
# MCF7 breast = tested on: MCF7 breast
# U251 CNS = tested on: U251 CNS
# K-562 leukemia = tested on: K-562 leukemia
# HCC-2998 colon = tested on: HCC-2998 colon
# UACC-257 melanoma = tested on: UACC-257 melanoma
# SF-268 CNS = tested on: SF-268 CNS
# COLO 205 colon = tested on: COLO 205 colon
# SNB-75 CNS = tested on: SNB-75 CNS
# OVCAR-4 ovarian = tested on: OVCAR-4 ovarian
# KM12 colon = tested on: KM12 colon
# IGROV1 ovarian = tested on: IGROV1 ovarian
# SK-MEL-2 melanoma = tested on: SK-MEL-2 melanoma
# HT29 colon = tested on: HT29 colon
# SK-OV-3 ovarian = tested on: SK-OV-3 ovarian
# TK-10 renal = tested on: TK-10 renal
# NCI-H23 lung = tested on: NCI-H23 lung
# A498 renal = tested on: A498 renal
# MDA-MB-231 breast = tested on: MDA-MB-231 breast
# HL-60(TB) leukemia = tested on: HL-60(TB) leukemia
# CAKI-1 renal = tested on: CAKI-1 renal
# SN12C renal = tested on: SN12C renal
# UO-31 renal = tested on: UO-31 renal
# T-47D breast = tested on: T-47D breast
# MOLT-4 leukemia = tested on: MOLT-4 leukemia
# HOP-62 NSCLC = tested on: HOP-62 NSCLC
# A549 NSCLC = tested on: A549 NSCLC
# ACHN renal = tested on: ACHN renal
# PC-3 prostate = tested on: PC-3 prostate
# HOP-92 NSCLC = tested on: HOP-92 NSCLC
# RXF 393 renal = tested on: RXF 393 renal
# RPMI-8226 leukemia = tested on: RPMI-8226 leukemia
# HS 578T breast = tested on: HS 578T breast
# NCI-H522 lung = tested on: NCI-H522 lung
# SK-MEL-5 melanoma = tested on: SK-MEL-5 melanoma
# SNB-19 CNS = tested on: SNB-19 CNS
# HCT-15 colon = tested on: HCT-15 colon
# 786-0 renal = tested on: 786-0 renal
# M14 melanoma = tested on: M14 melanoma
# SK-MEL-28 melanoma = tested on: SK-MEL-28 melanoma
# LOX IMVI melanoma = tested on: LOX IMVI melanoma
# OVCAR-3 ovarian = tested on: OVCAR-3 ovarian
# CCRF-CEM leukemia = tested on: CCRF-CEM leukemia
# MDA-MB-435 = tested on: MDA-MB-435
# MALME-3M melanoma = tested on: MALME-3M melanoma
# SF-539 CNS = tested on: SF-539 CNS
# HCT-116 colon = tested on: HCT-116 colon
# DU-145 prostate = tested on: DU-145 prostate
# SW-620 colon = tested on: SW-620 colon
# OVCAR-5 ovarian = tested on: OVCAR-5 ovarian
# UACC-62 melanoma = tested on: UACC-62 melanoma
# NCI-H460 lung = tested on: NCI-H460 lung
# BT-549 breast = tested on: BT-549 breast
smiles,measurement,setting,value
O=C1/C(=C/c2ccccc2)N=C2Sc3c(nc[nH]c3=O)N12,TGI,NCI-H226 lung,> 100 µM
same,TGI,OVCAR-8 ovarian,> 100 µM
same,TGI,SF-295 CNS,> 100 µM
same,TGI,EKVX NSCLC,> 100 µM
same,TGI,NCI/ADR-RES ovarian,> 100 µM
same,TGI,SR leukemia,68 µM
same,TGI,MCF7 breast,> 100 µM
same,TGI,U251 CNS,> 100 µM
same,TGI,K-562 leukemia,83.5 µM
same,TGI,HCC-2998 colon,> 100 µM
same,TGI,UACC-257 melanoma,> 100 µM
same,TGI,SF-268 CNS,> 100 µM
same,TGI,COLO 205 colon,> 100 µM
same,TGI,SNB-75 CNS,> 100 µM
same,TGI,OVCAR-4 ovarian,> 100 µM
same,TGI,KM12 colon,> 100 µM
same,TGI,IGROV1 ovarian,> 100 µM
same,TGI,SK-MEL-2 melanoma,> 100 µM
same,TGI,HT29 colon,> 100 µM
same,TGI,SK-OV-3 ovarian,> 100 µM
same,TGI,TK-10 renal,> 100 µM
same,TGI,NCI-H23 lung,> 100 µM
same,TGI,A498 renal,> 100 µM
same,TGI,MDA-MB-231 breast,> 100 µM
same,TGI,HL-60(TB) leukemia,> 100 µM
same,TGI,CAKI-1 renal,> 100 µM
same,TGI,SN12C renal,> 100 µM
same,TGI,UO-31 renal,> 100 µM
same,TGI,T-47D breast,> 100 µM
same,TGI,MOLT-4 leukemia,> 100 µM
same,TGI,HOP-62 NSCLC,> 100 µM
same,TGI,A549 NSCLC,> 100 µM
same,TGI,ACHN renal,> 100 µM
same,TGI,PC-3 prostate,> 100 µM
same,TGI,HOP-92 NSCLC,> 100 µM
same,TGI,RXF 393 renal,> 100 µM
same,TGI,RPMI-8226 leukemia,> 100 µM
same,TGI,HS 578T breast,> 100 µM
same,TGI,NCI-H522 lung,> 100 µM
same,TGI,SK-MEL-5 melanoma,> 100 µM
same,TGI,SNB-19 CNS,> 100 µM
same,TGI,HCT-15 colon,> 100 µM
same,TGI,786-0 renal,> 100 µM
same,TGI,M14 melanoma,> 100 µM
same,TGI,SK-MEL-28 melanoma,> 100 µM
same,TGI,LOX IMVI melanoma,> 100 µM
same,TGI,OVCAR-3 ovarian,> 100 µM
same,TGI,CCRF-CEM leukemia,> 100 µM
same,TGI,MDA-MB-435,> 100 µM
same,TGI,MALME-3M melanoma,> 100 µM
same,TGI,SF-539 CNS,> 100 µM
same,TGI,HCT-116 colon,> 100 µM
same,TGI,DU-145 prostate,> 100 µM
same,TGI,SW-620 colon,> 100 µM
same,TGI,OVCAR-5 ovarian,> 100 µM
COc1cc2c(cc1OCCCCN1CCN(CC(=O)Nc3ccc(Cl)cc3C(=O)c3ccccc3Cl)CC1)N=CC1CCCN1C2=O (stereo not given),GI50,NCI-H226 lung,0.483 µM
same,TGI,NCI-H226 lung,1.44 µM
same,GI50,OVCAR-8 ovarian,0.327 µM
same,TGI,OVCAR-8 ovarian,1.09 µM
same,GI50,SF-295 CNS,0.237 µM
same,TGI,SF-295 CNS,0.509 µM
same,GI50,EKVX NSCLC,0.375 µM
same,TGI,EKVX NSCLC,1.07 µM
same,GI50,SR leukemia,0.138 µM
same,TGI,SR leukemia,0.456 µM
same,GI50,MCF7 breast,0.167 µM
same,TGI,MCF7 breast,0.567 µM
same,GI50,U251 CNS,0.327 µM
same,TGI,U251 CNS,1.06 µM
same,GI50,K-562 leukemia,0.208 µM
same,TGI,K-562 leukemia,2.82 µM
same,GI50,HCC-2998 colon,0.194 µM
same,TGI,HCC-2998 colon,0.343 µM
same,GI50,UACC-257 melanoma,0.2 µM
same,TGI,UACC-257 melanoma,0.575 µM
same,GI50,SF-268 CNS,0.268 µM
same,TGI,SF-268 CNS,0.711 µM
same,GI50,COLO 205 colon,0.175 µM
same,TGI,COLO 205 colon,0.335 µM
same,GI50,SNB-75 CNS,0.223 µM
same,TGI,SNB-75 CNS,0.572 µM
same,GI50,OVCAR-4 ovarian,0.262 µM
same,TGI,OVCAR-4 ovarian,0.962 µM
same,GI50,KM12 colon,0.215 µM
same,TGI,KM12 colon,0.497 µM
same,GI50,UACC-62 melanoma,0.186 µM
same,TGI,UACC-62 melanoma,0.355 µM
same,GI50,IGROV1 ovarian,0.229 µM
same,TGI,IGROV1 ovarian,0.519 µM
same,GI50,SK-MEL-2 melanoma,0.288 µM
same,TGI,SK-MEL-2 melanoma,0.869 µM
same,GI50,HT29 colon,0.25 µM
same,TGI,HT29 colon,1.04 µM
same,GI50,SK-OV-3 ovarian,0.38 µM
same,TGI,SK-OV-3 ovarian,1.22 µM
same,GI50,NCI-H460 lung,0.228 µM
same,TGI,NCI-H460 lung,0.517 µM
same,GI50,TK-10 renal,0.311 µM
same,TGI,TK-10 renal,0.841 µM
same,GI50,NCI-H23 lung,0.206 µM
same,TGI,NCI-H23 lung,0.446 µM
same,GI50,A498 renal,0.194 µM
same,TGI,A498 renal,0.364 µM
same,GI50,MDA-MB-231 breast,0.251 µM
same,TGI,MDA-MB-231 breast,0.759 µM
same,GI50,HL-60(TB) leukemia,0.273 µM
same,GI50,CAKI-1 renal,0.28 µM
same,TGI,CAKI-1 renal,0.676 µM
same,GI50,SN12C renal,0.297 µM
same,TGI,SN12C renal,1.14 µM
same,GI50,UO-31 renal,0.267 µM
same,TGI,UO-31 renal,0.817 µM
same,GI50,MOLT-4 leukemia,0.209 µM
same,TGI,MOLT-4 leukemia,0.512 µM
same,GI50,HOP-62 NSCLC,0.196 µM
same,TGI,HOP-62 NSCLC,0.411 µM
same,GI50,ACHN renal,0.431 µM
same,TGI,ACHN renal,1.01 µM
same,GI50,PC-3 prostate,0.238 µM
same,TGI,PC-3 prostate,0.547 µM
same,GI50,HOP-92 NSCLC,0.0982 µM
same,TGI,HOP-92 NSCLC,0.298 µM
same,GI50,RXF 393 renal,0.186 µM
same,TGI,RXF 393 renal,0.388 µM
same,GI50,RPMI-8226 leukemia,0.0573 µM
same,TGI,RPMI-8226 leukemia,0.173 µM
same,GI50,NCI-H522 lung,0.107 µM
same,TGI,NCI-H522 lung,0.316 µM
same,GI50,SK-MEL-5 melanoma,0.183 µM
same,TGI,SK-MEL-5 melanoma,0.333 µM
same,GI50,SNB-19 CNS,0.36 µM
same,TGI,SNB-19 CNS,1.15 µM
same,GI50,HCT-15 colon,0.923 µM
same,TGI,HCT-15 colon,2.3 µM
same,GI50,786-0 renal,0.205 µM
same,TGI,786-0 renal,0.456 µM
same,GI50,SK-MEL-28 melanoma,0.229 µM
same,TGI,SK-MEL-28 melanoma,0.453 µM
same,GI50,LOX IMVI melanoma,0.203 µM
same,TGI,LOX IMVI melanoma,0.442 µM
same,GI50,OVCAR-3 ovarian,0.197 µM
same,TGI,OVCAR-3 ovarian,0.435 µM
same,GI50,CCRF-CEM leukemia,0.159 µM
same,TGI,CCRF-CEM leukemia,0.434 µM
same,GI50,MDA-MB-435,0.188 µM
same,TGI,MDA-MB-435,0.367 µM
same,GI50,MALME-3M melanoma,0.186 µM
same,TGI,MALME-3M melanoma,0.346 µM
same,GI50,BT-549 breast,0.292 µM
same,TGI,BT-549 breast,0.799 µM
same,GI50,SF-539 CNS,0.236 µM
same,TGI,SF-539 CNS,0.501 µM
same,GI50,HCT-116 colon,0.225 µM
same,TGI,HCT-116 colon,0.664 µM
same,GI50,DU-145 prostate,0.277 µM
same,TGI,DU-145 prostate,0.791 µM
same,GI50,SW-620 colon,0.238 µM
same,TGI,SW-620 colon,0.726 µM
same,GI50,OVCAR-5 ovarian,0.324 µM
same,TGI,OVCAR-5 ovarian,0.939 µM
